System: shDCN cell line and Mock cell line of anticancer drug-resistant cell lines Sa-3R and KB-R
Assay: 5-FU sensitivity test, MTS cell survival assay
Format: cell-based
Details: 72 hours incubation, shDCN vs Mock cell line
Protocol: Next, the shDCN cell line and the Mock cell line were cultured in the presence of an anticancer drug, and a change in the degree of resistance to the anticancer drug by the suppressed expression of DCN was verified by measuring a change in cell growth ability. 5-FU was used as the anticancer drug.
The shDCN cell line and the Mock cell line were each seeded to a 96-well plate at a density of 2×10^3 cells/100 μl of medium/well, and simultaneously mixed with 10 μl of a medium supplemented with 5-FU. The concentration of 5-FU was adjusted so that the final concentration was 1 μM to 1×10^4 μM. After that, the cells were incubated for 72 hours, and a cell survival rate was evaluated by an MTS assay. An MTS solution (product of Promega Corporation) was added at a volume of 10 μl/well, and the cells were incubated for 4 hours. After that, counting was performed with a plate reader at a wavelength of 490 nm. A 50% survival concentration (IC50) was determined based on the results of, the MTS assay.

## O=c1[nH]cc(F)c(=O)[nH]1 [5-FU, 5-fluorouracil]
  IC50 value of shDCN cell line relative to Mock cell line (increase in sensitivity to 5-FU): about 10 times lower
